What all share (format): cell-based
Assay [1] deals with EGLN3 mRNA level in Hep3B cells. In words: qRT-PCR of FIH-dependent HIF target gene EGLN3 in Hep3B cells. To be noted: for Upregulation of EGLN3 expression: absence of irradiation. The protocol: 5 […] sustainably engages with FIH and regulates the expression of FIH-dependent HIF target gene EGLN3 in Hep3B cells. (A) The CETSA assay was carried out with Hep3B cells grown in the presence of NBA-ZG-2291 (50 μM) for 12–48 h after 30 min of light activation (365 nm, 16 W). The intensity of the bands for grayscale analysis was referenced to the starting temperature (37 °C). α-Actinin was the sample loading control. n = 2; mean ± SD. […] (E) Correlation heatmap of the NBA-ZG-2291-treated group and the siFIH group by RNA-sequencing analysis. […] The relative fold change with respect to DMSO treated sample is shown (with normalization to HPRT gene levels). Mean ± SEM; n = 3. (G) TG level of NBA-ZG-2291-treated 3T3-L1-derived adipocytes. Mean ± SEM; n = 3. (H) Representative Oil Red O-stained images of the control, ZG-2291-treated, and NBA-ZG-2291-treated 3T3-L1-derived adipocytes. Scale Bar, 30 μm. P values were analyzed by two-way ANOVA comparing with the vehicle/control group (*, P < 0.05; **, P < 0.01; ***, P < 0.001, ****, P < 0.0001). See Methods (Quantitative PCR Analysis of Gene Expression) for assay details. TEXT PRINTED IN THE PICTURE: (A) no label printed: FIH: ΔTm (°C): 8.87 (Incubation time: 12 h); FIH: ΔTm (°C): 9.28 (Incubation time: 24 h); FIH: ΔTm (°C): 8.86 (Incubation time: 48 h); α-actinin: ΔTm (°C): 0.30 (Incubation time: 12 h); α-actinin: ΔTm (°C): -0.03 (Incubation time: 24 h); α-actinin: ΔTm (°C): -0.45 (Incubation time: 48 h) DOUBTS OF THE COPYIST ABOUT THIS PICTURE: Panel A: the picture prints no substance label with the ΔTm tables, so the label is left empty
The Egl-9 family hypoxia-inducible factor 3 gene (EGLN3, PHD3) is a HIF target gene, expression of which is negatively regulated by FIH catalysis, , potentially in a context-dependent manner. We therefore investigated the effect of the light-induced covalent inhibitor NBA-ZG-2291 on EGLN3 expression levels in Hep3B cells using ZG-2291 as a positive inhibition control. […] At a concentration of 10 μM, NBA-ZG-2291 increased EGLN3 expression by ∼2.5-fold with irradiation.
We also compared the time-dependent regulation of NBA-ZG-2291 on the HIF pathway with that of ZG-2291. […] This may result from the limited action time of the reversible inhibitor, perhaps due to its metabolism. The overall results provide strong evidence that the light-induced, lysine-targeting irreversible covalent inhibitor NBA-ZG-2291 can effectively and sustainably engage FIH, leading to the upregulation of FIH-dependent HIF target gene expression.

The next assay deals with Hep3B cells. Put plainly: Whole-genome RNA sequencing of treated Hep3B cells. To be noted: replicates B1, B2. The procedure:
To confirm whether the effects of NBA-ZG-2291 on gene expression are FIH-dependent, we knocked down FIH using siRNA and compared the impact of NBA-ZG-2291 treatment and FIH knockdown (siFIH) on gene expression in Hep3B cells. Whole-genome expression profiling analysis was conducted in NBA-ZG-2291-treated Hep3B cells and FIH knockdown Hep3B cells, with DMSO-treated Hep3B cells serving as controls.

The subject of the next assay is HIF-1α and HIF-2α. Put plainly: Western blotting of HIF-1α and HIF-2α protein levels in Hep3B cells. The protocol: To investigate potential cellular target engagement of NBA-ZG-2291 with FIH, we performed a time-dependent cellular thermal shift assay (CETSA) using Hep3B cells. The results imply that, after 30 min of light activation (365 nm, 16 W), NBA-ZG-2291 effectively stabilizes FIH with a ΔT m of about 9 °C after incubation for 12–48 h (Figure A), indicating sustained engagement with FIH. […] We also performed Western blotting to examine the protein levels of both HIF-1α and HIF-2α in control and NBA-ZG-2291-treated Hep3B cells.
Background: Immunoblotting shows a protein as a band on a membrane.

Values joined by “and” are separate entries in the source; they are usually repeats but may differ in a detail not shown here. Equal values may be shown once.

On to `O=C(O)CNC(=O)c1ncc(-c2cc(-c3ccc(CO)c([N+](=O)[O-])c3)no2)cc1O` [NBA-ZG-2291], for which the “Upregulation of EGLN3” value in assay [1] (0.3 μM, after 30 min light activation (365 nm, 16 W)) worked out at 1.35 fold. In assay [1] (10 μM), the “Upregulation of EGLN3 expression” value is on record as “did not result in significant upregulation”. Further, the “Increase of EGLN3 expression” value in assay [1] (10 μM, with irradiation) is on record as roughly 2.5 fold. Also, in assay [1] (20 μM), the “Upregulation of EGLN3 expression” value was “very weak upregulation”. In addition, in assay [1] (maintained from 6 to 48 h, after 30 min irradiation), the “Increase of EGLN3 expression, time course” value is recorded as 2.5 fold. In addition, in the assay with Hep3B cells, the “DPM1 expression (whole-genome RNA sequencing)” value was 3.9965 and 3.239; the “SCYL3 expression (whole-genome RNA sequencing)” value was 0.949 and 1.202; the “TNMD expression (whole-genome RNA sequencing)” value was 0; the “TSPAN6 expression (whole-genome RNA sequencing)” value is 7.032 and 6.946. Moreover, the “Protein levels of HIF-1α and HIF-2α” value in the assay with HIF-1α and HIF-2α is “did not significantly alter the levels of either HIF-1α or HIF-2α”.
